The source of these data is US7867998B2, “Method of making antitussive medicine and relieving cough” (Hong Kong Jockey Club Institute of Chinese Medicine Limited, priority 2005, dated 2011).

Assay [1] deals with guinea pigs. Briefly: Antitussive assay: citric acid aerosol-induced cough in conscious guinea pigs, intragastric administration. The assay is classed as in vivo, guinea pig. The note with it: 0.5 M citric acid aerosol for 10 min, versus 1st challenge, HCl salt form in saline. The protocol: Unrestrained conscious guinea pigs were individually placed in a transparent Perspex airtight chamber and exposed to 0.5 M citric acid aerosol produced by an ultrasonic nebulizer (NEU12, Omron, Tokyo, Japan) for 10 min with a flow rate of 0.6 ml/min. During the 10 min observation period, the animals were continuously observed, and the numbers and timing of typical body movement of cough responses including opening the mouth, contraction of thoracic and abdomen muscles and a jerking of the front body were noted. The cough sounds were concurrently picked up via a microphone which connected to a personal computer and analyzed by Cool Edit 2000 software (Syntrillium, Phenix, USA). Thus a cough response can be differentiated from a sneeze and other background noises by observation of body movements, cough sound from loudspeakers and wave patterns recorded in the computer. Animals producing cough more than 18 times but less than 30 in the first challenge were selected for further antitussive tests. Cough episodes during the first challenge were recorded as control data. After 72 hour recovery, the selected sensitive animals were randomly divided into several groups with six animals in each group. The test samples were changed to their salt forms with 4% HCl to dissolve in saline and administrated intragastrically.
In the present experiments, neotuberostemonine produced a reduction in cough episodes by 17 and 40% (P<0.01 versus 1st challenge) at 25 and 50 mg/kg i.g., respectively. […] These two alkaloids are different from neotuberostemonine in molecular skeletons (i.e., base structures). Neotuberostemonine belongs to the stenine group while croomine and stemoninine belong to the tuberostemospironine and stemoamide groups, respectively. […] Since croomine and stemoninine are the major components of Radix Stemonae, they provided scientific evidence for the use of Radix Stemonae for cough treatment in folk medicines and in PRC Pharmacopeia.

Assay [2] concerns cough. The note with it: intraperitoneal, at the same dosage; Chung et al., Planta Med. 2003; cited from earlier work.

Turning to `C[C@@H]1C[C@]2(CCCCN3[C@H]2CC[C@H]3[C@@H]2C[C@H](C)C(=O)O2)OC1=O` [croomine, Croomine], the “reduction in cough episodes” value in assay [1] (25 mg/kg i.g.) was found to be 35%; in assay [1] (50 mg/kg i.g.) it was 57%.

Consider `CC[C@H]1[C@H]2[C@@H](CCCN3[C@H]2CC[C@H]3[C@@H]2C[C@H](C)C(=O)O2)O[C@]12C=C(C)C(=O)O2` [Stemoninine], for which the “reduction in cough episodes” value in assay [1] (25 mg/kg i.g.) was determined as 32%; in assay [1] (50 mg/kg i.g.) it was 66%.

Take `CC[C@@H]1[C@H]2CCCCN3[C@H]2[C@@H](C[C@H]3[C@@H]2C[C@H](C)C(=O)O2)[C@H]2[C@@H]1OC(=O)[C@H]2C` [neotuberostemonine, reference compound]: the figures for the “reduction in cough episodes” value in assay [1] (25 mg/kg i.g.) and in assay [1] (50 mg/kg i.g.) were 17% and 40%, respectively. The “inhibition (of cough)” value in assay [2] is given as 85%.
